Results as given in patent US5300498A, “6-piperazinyl-1H-pyrazolo[3,4-b]pyridine-3-carboxylic acids, esters, amides and related compounds” (Hoechst-Roussel Pharmaceuticals Incorporated, priority 1993, dated 1994).
Where a name gives a salt, the structure may show the parent alone.

Tested on: serotonin (5HT) uptake
Test: [^3 H]-Serotonin Uptake in Rat Whole Brain and Hypothalamic Synaptosomes
Format: biochemical, rat (male CR Wistar)
Conditions: 50 nM [^3 H]-5HT, 37° C., 5 minutes, read-out: Inhibition of Serotonin Uptake, IC50
Description: [^3 H]-Serotonin Uptake in Rat Whole Brain and Hypothalamic Synaptosomes
A. Animals: Male CR Wistar rats (100-125 g).
1. Krebs-Henseleit Bicarbonate Buffer, pH 7.4 (KHBB):
Prior to use add to 200 ml, per assay:
Make a 4 liter batch, containing the following salts:
3. Sucrose solution: 0.32M sucrose containing 5 mM HEPES and 0.1 mM EDTA; pH to 7.3 using Tris base.
4. A 0.1 mM stock solution of serotonin creatinine SO4 is made up in 0.01N HCl. This is used to dilute the specific activity of the radiolabeled 5HT.
The final desired concentration of [^3 H]-5HT in the assay is 50 nM. The dilution factor is 0.8.
6. For most assays, a 0.5 mM stock solution of the test compound is made up initially in either 10 μl of glacial acetic acid, 100 μl DMSO or 10 μl of the recrystallization solvent, to which is added approximately 10 ml of distilled water. Compounds are initially screened in duplicate at 3 concentrations (10^-8, 10^-7 and 10^-6 M) made up in water.
43, 1114 (1984) and Dunkley, P. R., Jarvie, R. E., Heath, J. W., Kidd, G. J., Rostas, J. A. P. Brain Research 372, 115 (1986). Male Wistar rats are decapitated and the brain rapidly removed. […] The following procedures are performed on ice. Homogenization should be done with 4-5 up and down strokes at medium speeds (setting 4.5 to 5) to minimize synaptosome lysis.
Tubes are carefully removed, and the top layer and the top part of the middle (red) layer are discarded using a pasteur pipette. […] This is carefully removed, placed in a centrifuge tube, diluted with KHBB and spun at 21,000 g (13,000 rpm, Sorvall SS-34 rotor).
200 μl of the tissue suspension are added to each of 24 tubes (at a time) containing the 20 μl of vehicle or drug on ice. Three minutes later, 800 μl of KHBB containing [^3 H]-5HT are added, and the tubes are vortexed. […] Uptake is terminated by filtration through GF/B filter strips using a Brandel cell harvester (filter strips are presoaked in ice cold filtration buffer). Tubes are washed once with 5 ml of ice cold filtration buffer.

| Structure (SMILES) | IC50 [nM] |
| --- | --- |
| CN1CCN(c2ccc3cnn(C)c3n2)CC1 [1-Methyl-6-(4-methyl-1-piperazinyl)-1H-pyrazolo[3,4-b]pyridine] | 3430 |
| N#Cc1n[nH]c2nc(N3CCNCC3)ccc12 [6-(1-Piperazinyl)-1H-pyrazolo[3,4-b]pyridine-3-carbonitrile] | 696 |
| NC(=O)c1n[nH]c2nc(N3CCNCC3)ccc12 [6-(1-Piperazinyl)-1H-pyrazolo[3,4-b]pyridine-3-carboxamide hydrochloride hydrate] | 7690 |
| CN1CCN(c2ccc3c(C#N)n[nH]c3n2)CC1 [6-(4-Methyl-1-piperazinyl)-1H-pyrazolo[3,4-b]pyridine-3-carbonitrile] | 764 |
| CN1CCN(c2ccc3cn[nH]c3n2)CC1 [6-(4-Methyl-1-piperazinyl)-1H-pyrazolo[3,4-b]pyridine] | 8260 |
| N#Cc1n[nH]c2nc(N3CCCNCC3)ccc12 [6-(Hexahydro-1H-1,4-diazepin-1-yl)-1H-pyrazolo[3,4-b]pyridine-3-carbonitril] | 349 |
